Assays:
IRS1 and WNT1 = assay: Western blot, CDK12 downstream gene expression; assay type: cell-based; conditions: SK-Br3 and HCC1954 cell lines, 40 and 200 nM, 24 hours
CYP1A2 = CYP1A2 (Homo sapiens (Human), UniProt P05177); assay: in vitro; assay type: in vitro ADME
Procedure: 5 derivatives were evaluated for in vitro metabolic stability in liver microsomes from three different species (human, dog, mouse) and for inhibitory activity against 5 representative cytochrome P450 enzymes (CYPs)(Table 3). In terms of liver microsomal stability, the 2′-pyridyl group is more suitable than the α-methyl-4′-pyridyl group as the terminal aromatic group at position 6, and the aminopyrimidyl group is better than the aminopyridyl group as a substituent at position 2.

CDK2/cyclin A1 = CDK2/cyclin A1 (Homo sapiens (Human), UniProt P24941); assay: Kinome-wide profiling; assay type: biochemical; conditions: read-out: % Residual Activity (mean)
MYLK4 = MYLK4 (Homo sapiens (Human), UniProt Q86YV6); assay: Kinome-wide profiling; assay type: biochemical; conditions: read-out: % Residual Activity (mean)
FES/FPS = FES/FPS (Homo sapiens (Human), UniProt P07332); assay: Kinome-wide profiling; assay type: biochemical; conditions: read-out: % Residual Activity (mean)
CHK2 = CHK2 (Homo sapiens (Human), UniProt O96017); assay: Kinome-wide profiling; assay type: biochemical; conditions: read-out: % Residual Activity (mean)
CAMKK2 = CAMKK2 (Homo sapiens (Human), UniProt Q96RR4); assay: Kinome-wide profiling; assay type: biochemical; conditions: read-out: % Residual Activity (mean)
EPHA1 = EPHA1 (Homo sapiens (Human), UniProt P21709); assay: Kinome-wide profiling; assay type: biochemical; conditions: read-out: % Residual Activity (mean)
YES/YES1 = YES/YES1 (Homo sapiens (Human), UniProt P07947); assay: Kinome-wide profiling; assay type: biochemical; conditions: read-out: % Residual Activity (mean)
CK1g1 = CK1g1 (Homo sapiens (Human), UniProt Q9HCP0); assay: Kinome-wide profiling; assay type: biochemical; conditions: read-out: % Residual Activity (mean)
STK25/YSK1 = STK25/YSK1 (Homo sapiens (Human), UniProt O00506); assay: Kinome-wide profiling; assay type: biochemical; conditions: read-out: % Residual Activity (mean)
MLK1/MAP3K9 = MLK1/MAP3K9 (Homo sapiens (Human), UniProt P80192); assay: Kinome-wide profiling; assay type: biochemical; conditions: read-out: % Residual Activity (mean)
CK1epsilon = CK1epsilon (Homo sapiens (Human), UniProt P49674); assay: Kinome-wide profiling; assay type: biochemical; conditions: read-out: % Residual Activity (mean)
FRK/PTK5 = FRK/PTK5 (Homo sapiens (Human), UniProt P42685); assay: Kinome-wide profiling; assay type: biochemical; conditions: read-out: % Residual Activity (mean)
ERN1/IRE1 = ERN1/IRE1 (Homo sapiens (Human), UniProt O75460); assay: Kinome-wide profiling; assay type: biochemical; conditions: read-out: % Residual Activity (mean)
PHKg2 = PHKg2 (Homo sapiens (Human), UniProt P15735); assay: Kinome-wide profiling; assay type: biochemical; conditions: read-out: % Residual Activity (mean)
LIMK1 = LIMK1 (Homo sapiens (Human), UniProt P53667); assay: Kinome-wide profiling; assay type: biochemical; conditions: read-out: % Residual Activity (mean)
MST1/STK4 = MST1/STK4 (Homo sapiens (Human), UniProt Q13043); assay: Kinome-wide profiling; assay type: biochemical; conditions: read-out: % Residual Activity (mean)
MLK2/MAP3K10 = MLK2/MAP3K10 (Homo sapiens (Human), UniProt Q02779); assay: Kinome-wide profiling; assay type: biochemical; conditions: read-out: % Residual Activity (mean)
EPHB3 = EPHB3 (Homo sapiens (Human), UniProt P54753); assay: Kinome-wide profiling; assay type: biochemical; conditions: read-out: % Residual Activity (mean)
RIPK2 = RIPK2 (Homo sapiens (Human), UniProt O43353); assay: Kinome-wide profiling; assay type: biochemical; conditions: read-out: % Residual Activity (mean)
c-MER = c-MER (Homo sapiens (Human), UniProt Q12866); assay: Kinome-wide profiling; assay type: biochemical; conditions: read-out: % Residual Activity (mean)
GRK6 = GRK6 (Homo sapiens (Human), UniProt P43250); assay: Kinome-wide profiling; assay type: biochemical; conditions: read-out: % Residual Activity (mean)
ZIPK/DAPK3 = ZIPK/DAPK3 (Homo sapiens (Human), UniProt O43293); assay: Kinome-wide profiling; assay type: biochemical; conditions: read-out: % Residual Activity (mean)
HIPK2 = HIPK2 (Homo sapiens (Human), UniProt Q9H2X6); assay: Kinome-wide profiling; assay type: biochemical; conditions: read-out: % Residual Activity (mean)
NEK5 = NEK5 (Homo sapiens (Human), UniProt Q6P3R8); assay: Kinome-wide profiling; assay type: biochemical; conditions: read-out: % Residual Activity (mean)
PKCIOTA = PKCIOTA (Homo sapiens (Human), UniProt P41743); assay: Kinome-wide profiling; assay type: biochemical; conditions: read-out: % Residual Activity (mean)
RON/MST1R = RON/MST1R (Homo sapiens (Human), UniProt Q04912); assay: Kinome-wide profiling; assay type: biochemical; conditions: read-out: % Residual Activity (mean)
JAK2 = JAK2 (Homo sapiens (Human), UniProt O60674); assay: Kinome-wide profiling; assay type: biochemical; conditions: read-out: % Residual Activity (mean)
PKCeta = PKCeta (Homo sapiens (Human), UniProt P24723); assay: Kinome-wide profiling; assay type: biochemical; conditions: read-out: % Residual Activity (mean)
TNK1 = TNK1 (Homo sapiens (Human), UniProt Q13470); assay: Kinome-wide profiling; assay type: biochemical; conditions: read-out: % Residual Activity (mean)
NEK7 = NEK7 (Homo sapiens (Human), UniProt Q8TDX7); assay: Kinome-wide profiling; assay type: biochemical; conditions: read-out: % Residual Activity (mean)
TGFBR2 = TGFBR2 (Homo sapiens (Human), UniProt P37173); assay: Kinome-wide profiling; assay type: biochemical; conditions: read-out: % Residual Activity (mean)
VRK2 = VRK2 (Homo sapiens (Human), UniProt Q86Y07); assay: Kinome-wide profiling; assay type: biochemical; conditions: read-out: % Residual Activity (mean)
YSK4/MAP3K19 = YSK4/MAP3K19 (Homo sapiens (Human), UniProt Q56UN5); assay: Kinome-wide profiling; assay type: biochemical; conditions: read-out: % Residual Activity (mean)
IRAK2 = IRAK2 (Homo sapiens (Human), UniProt O43187); assay: Kinome-wide profiling; assay type: biochemical; conditions: read-out: % Residual Activity (mean)

Sequence of MYLK4 (Q86YV6 whole entry): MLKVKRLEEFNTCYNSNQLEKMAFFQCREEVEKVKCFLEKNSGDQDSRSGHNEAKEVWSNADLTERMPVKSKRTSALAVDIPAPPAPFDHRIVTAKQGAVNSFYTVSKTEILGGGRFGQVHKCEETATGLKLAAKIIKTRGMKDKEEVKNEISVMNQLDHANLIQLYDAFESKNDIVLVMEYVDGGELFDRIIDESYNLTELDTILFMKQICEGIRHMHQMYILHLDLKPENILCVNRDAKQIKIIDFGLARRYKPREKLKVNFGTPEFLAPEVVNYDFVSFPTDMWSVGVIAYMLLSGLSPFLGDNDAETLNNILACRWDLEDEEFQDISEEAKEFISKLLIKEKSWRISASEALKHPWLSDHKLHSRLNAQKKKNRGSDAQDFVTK
Sequence of CHK2 (O96017 whole entry): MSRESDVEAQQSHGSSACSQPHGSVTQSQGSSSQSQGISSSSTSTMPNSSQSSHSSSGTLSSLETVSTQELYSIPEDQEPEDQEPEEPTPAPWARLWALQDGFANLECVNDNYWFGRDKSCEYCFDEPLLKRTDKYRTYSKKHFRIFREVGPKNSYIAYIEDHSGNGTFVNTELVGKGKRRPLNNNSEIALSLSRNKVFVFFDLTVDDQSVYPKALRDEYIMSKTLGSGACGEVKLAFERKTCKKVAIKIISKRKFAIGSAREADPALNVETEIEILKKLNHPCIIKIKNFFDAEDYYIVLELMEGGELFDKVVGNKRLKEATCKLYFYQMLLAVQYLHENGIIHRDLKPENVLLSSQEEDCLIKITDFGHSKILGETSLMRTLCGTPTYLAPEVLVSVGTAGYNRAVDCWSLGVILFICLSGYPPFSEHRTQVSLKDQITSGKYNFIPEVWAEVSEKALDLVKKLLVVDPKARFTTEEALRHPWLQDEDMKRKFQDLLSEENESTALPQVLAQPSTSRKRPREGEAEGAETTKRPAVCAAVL
Sequence of RIPK2 (O43353 whole entry): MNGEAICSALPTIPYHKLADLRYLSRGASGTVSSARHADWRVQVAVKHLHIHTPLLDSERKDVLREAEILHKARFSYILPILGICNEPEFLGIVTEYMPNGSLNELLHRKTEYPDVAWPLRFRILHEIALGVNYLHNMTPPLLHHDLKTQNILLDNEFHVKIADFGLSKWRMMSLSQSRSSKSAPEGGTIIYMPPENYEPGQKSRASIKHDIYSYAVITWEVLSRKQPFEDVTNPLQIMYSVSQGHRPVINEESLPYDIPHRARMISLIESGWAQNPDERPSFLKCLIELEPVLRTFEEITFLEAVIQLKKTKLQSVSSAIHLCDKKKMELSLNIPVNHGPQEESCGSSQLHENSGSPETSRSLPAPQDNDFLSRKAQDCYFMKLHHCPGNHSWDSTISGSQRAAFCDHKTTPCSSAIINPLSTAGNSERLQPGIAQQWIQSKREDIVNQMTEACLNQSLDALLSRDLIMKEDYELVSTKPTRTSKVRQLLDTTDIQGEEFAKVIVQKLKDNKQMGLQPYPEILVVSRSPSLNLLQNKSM
Sequence of NEK5 (Q6P3R8 whole entry): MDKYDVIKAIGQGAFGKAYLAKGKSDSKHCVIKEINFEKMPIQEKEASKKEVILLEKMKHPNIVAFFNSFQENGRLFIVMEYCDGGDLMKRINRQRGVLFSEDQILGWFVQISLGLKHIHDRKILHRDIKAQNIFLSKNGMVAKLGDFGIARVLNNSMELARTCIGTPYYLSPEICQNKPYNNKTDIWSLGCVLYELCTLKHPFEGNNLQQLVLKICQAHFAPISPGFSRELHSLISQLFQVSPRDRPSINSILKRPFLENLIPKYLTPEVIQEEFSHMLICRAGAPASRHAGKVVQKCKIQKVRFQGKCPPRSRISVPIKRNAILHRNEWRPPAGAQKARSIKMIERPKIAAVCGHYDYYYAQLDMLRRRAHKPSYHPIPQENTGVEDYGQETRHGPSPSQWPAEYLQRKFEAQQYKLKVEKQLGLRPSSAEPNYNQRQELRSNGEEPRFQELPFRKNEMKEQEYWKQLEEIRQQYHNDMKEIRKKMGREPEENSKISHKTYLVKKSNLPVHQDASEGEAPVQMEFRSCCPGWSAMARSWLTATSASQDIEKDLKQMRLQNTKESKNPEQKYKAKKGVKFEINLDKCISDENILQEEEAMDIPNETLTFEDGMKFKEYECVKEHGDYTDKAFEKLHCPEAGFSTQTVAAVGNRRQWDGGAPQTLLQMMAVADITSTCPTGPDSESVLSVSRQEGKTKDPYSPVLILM
Sequence of MLK1/MAP3K9 (P80192 whole entry): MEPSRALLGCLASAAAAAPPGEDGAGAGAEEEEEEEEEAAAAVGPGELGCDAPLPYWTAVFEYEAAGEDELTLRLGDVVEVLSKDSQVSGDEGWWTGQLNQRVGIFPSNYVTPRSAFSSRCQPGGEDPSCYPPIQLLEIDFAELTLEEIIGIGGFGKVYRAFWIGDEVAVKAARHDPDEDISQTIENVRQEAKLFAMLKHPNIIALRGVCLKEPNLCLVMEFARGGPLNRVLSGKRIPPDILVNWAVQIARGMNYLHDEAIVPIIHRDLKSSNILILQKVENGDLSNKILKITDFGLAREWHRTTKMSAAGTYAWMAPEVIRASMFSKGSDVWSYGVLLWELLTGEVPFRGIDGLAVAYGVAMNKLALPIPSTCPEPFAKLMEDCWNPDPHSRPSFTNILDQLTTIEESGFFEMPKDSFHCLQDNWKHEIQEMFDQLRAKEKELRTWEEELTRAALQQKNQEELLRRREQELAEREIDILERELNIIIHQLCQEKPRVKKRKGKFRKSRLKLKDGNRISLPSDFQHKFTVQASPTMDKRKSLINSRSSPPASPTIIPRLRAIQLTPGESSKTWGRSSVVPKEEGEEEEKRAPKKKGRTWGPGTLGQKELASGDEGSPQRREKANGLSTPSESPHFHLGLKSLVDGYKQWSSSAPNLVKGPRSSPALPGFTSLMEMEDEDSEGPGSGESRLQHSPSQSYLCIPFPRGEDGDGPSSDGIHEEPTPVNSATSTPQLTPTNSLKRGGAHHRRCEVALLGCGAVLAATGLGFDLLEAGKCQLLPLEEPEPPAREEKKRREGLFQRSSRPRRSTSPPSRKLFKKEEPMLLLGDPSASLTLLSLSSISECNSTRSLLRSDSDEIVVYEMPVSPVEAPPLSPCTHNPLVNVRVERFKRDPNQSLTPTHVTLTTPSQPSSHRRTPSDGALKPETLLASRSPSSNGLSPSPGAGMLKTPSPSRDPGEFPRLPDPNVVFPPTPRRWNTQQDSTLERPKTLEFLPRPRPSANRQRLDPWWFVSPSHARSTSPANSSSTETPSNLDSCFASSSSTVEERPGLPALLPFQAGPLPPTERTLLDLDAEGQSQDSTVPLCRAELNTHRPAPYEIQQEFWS
Sequence of JAK2 (O60674 whole entry): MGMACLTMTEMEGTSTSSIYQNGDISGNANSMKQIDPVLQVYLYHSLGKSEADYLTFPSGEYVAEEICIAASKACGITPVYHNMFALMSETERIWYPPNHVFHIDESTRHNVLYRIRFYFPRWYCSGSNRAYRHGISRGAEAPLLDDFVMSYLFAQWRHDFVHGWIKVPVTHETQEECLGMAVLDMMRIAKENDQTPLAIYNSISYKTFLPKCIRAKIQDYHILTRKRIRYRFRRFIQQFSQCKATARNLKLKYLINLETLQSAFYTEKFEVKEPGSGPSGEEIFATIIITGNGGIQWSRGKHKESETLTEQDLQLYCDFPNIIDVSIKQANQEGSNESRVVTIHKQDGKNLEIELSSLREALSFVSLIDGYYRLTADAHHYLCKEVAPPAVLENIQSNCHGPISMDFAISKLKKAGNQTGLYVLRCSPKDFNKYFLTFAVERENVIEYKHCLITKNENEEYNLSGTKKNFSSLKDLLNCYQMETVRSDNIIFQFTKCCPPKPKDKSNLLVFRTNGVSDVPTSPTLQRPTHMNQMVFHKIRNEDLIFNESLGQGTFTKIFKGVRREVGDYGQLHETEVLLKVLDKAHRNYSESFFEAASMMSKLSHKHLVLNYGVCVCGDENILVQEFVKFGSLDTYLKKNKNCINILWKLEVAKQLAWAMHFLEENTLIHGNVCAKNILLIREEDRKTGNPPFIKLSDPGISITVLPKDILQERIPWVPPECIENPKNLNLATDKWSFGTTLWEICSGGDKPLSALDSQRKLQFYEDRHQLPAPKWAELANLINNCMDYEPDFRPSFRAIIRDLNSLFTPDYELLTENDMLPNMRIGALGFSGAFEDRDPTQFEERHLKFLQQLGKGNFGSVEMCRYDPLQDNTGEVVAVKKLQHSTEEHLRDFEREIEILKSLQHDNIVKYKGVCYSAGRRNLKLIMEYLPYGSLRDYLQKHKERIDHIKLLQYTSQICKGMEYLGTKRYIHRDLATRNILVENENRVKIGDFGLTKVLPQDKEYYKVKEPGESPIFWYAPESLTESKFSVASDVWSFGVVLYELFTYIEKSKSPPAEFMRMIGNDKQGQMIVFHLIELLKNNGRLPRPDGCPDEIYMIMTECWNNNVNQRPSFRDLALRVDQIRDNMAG
Sequence of VRK2 (Q86Y07 whole entry): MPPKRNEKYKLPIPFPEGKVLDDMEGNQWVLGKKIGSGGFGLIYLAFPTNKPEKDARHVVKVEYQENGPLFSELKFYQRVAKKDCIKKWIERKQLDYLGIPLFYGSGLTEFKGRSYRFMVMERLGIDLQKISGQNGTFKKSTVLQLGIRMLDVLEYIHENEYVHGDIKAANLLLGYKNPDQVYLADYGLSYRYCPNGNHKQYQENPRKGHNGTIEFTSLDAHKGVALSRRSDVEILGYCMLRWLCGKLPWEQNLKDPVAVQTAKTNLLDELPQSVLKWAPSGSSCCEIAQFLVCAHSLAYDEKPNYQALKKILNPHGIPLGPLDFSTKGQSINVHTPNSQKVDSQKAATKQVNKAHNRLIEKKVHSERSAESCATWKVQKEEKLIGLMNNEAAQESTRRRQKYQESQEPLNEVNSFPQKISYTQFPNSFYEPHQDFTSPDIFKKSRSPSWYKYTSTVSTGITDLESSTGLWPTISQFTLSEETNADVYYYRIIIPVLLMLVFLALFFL

## CCn1cnc2c(NCc3ccc(-c4ccccn4)nc3)nc(-c3ccc(N)nc3)nc21 [Example 53, N-([2,2′-bipyridin]-5-ylmethyl)-2-(6-aminopyridin-3-yl)-9-ethyl-9H-purin-6-amine]
IRS1 and WNT1
  expression of IRS1 and WNT1: inhibited the expression of IRS1 and WNT1
IRS1 and WNT1; listed as Compound 53
  expression of IRS1 and WNT1: strongly suppressed
CYP1A2
  activity at 10 µM: 74.7%
CDK2/cyclin A1
  remaining activity at 10 µM: 0.16%
MYLK4
  remaining activity at 10 µM: 4.07%
FES/FPS
  remaining activity at 10 µM: 6.37%
CHK2
  remaining activity at 10 µM: 7.39%
CAMKK2
  remaining activity at 10 µM: 10.6%
EPHA1
  remaining activity at 10 µM: 13.2%
YES/YES1
  remaining activity at 10 µM: 20.6%
CK1g1
  remaining activity at 10 µM: 22.9%
STK25/YSK1
  remaining activity at 10 µM: 23.1%
MLK1/MAP3K9
  remaining activity at 10 µM: 27.9%
CK1epsilon
  remaining activity at 10 µM: 29.8%
FRK/PTK5
  remaining activity at 10 µM: 43.5%
ERN1/IRE1
  remaining activity at 10 µM: 50.8%
PHKg2
  remaining activity at 10 µM: 56.9%
LIMK1
  remaining activity at 10 µM: 59.9%
MST1/STK4
  remaining activity at 10 µM: 62.2%
MLK2/MAP3K10
  remaining activity at 10 µM: 62.3%
EPHB3
  remaining activity at 10 µM: 66%
RIPK2
  remaining activity at 10 µM: 66.1%
c-MER
  remaining activity at 10 µM: 71%
GRK6
  remaining activity at 10 µM: 80.6%
ZIPK/DAPK3
  remaining activity at 10 µM: 80.8%
HIPK2
  remaining activity at 10 µM: 81.3%
NEK5
  remaining activity at 10 µM: 83.8%
PKCIOTA
  remaining activity at 10 µM: 86.1%
RON/MST1R
  remaining activity at 10 µM: 86.8%
JAK2
  remaining activity at 10 µM: 87%
PKCeta
  remaining activity at 10 µM: 87.9%
TNK1
  remaining activity at 10 µM: 91.3%
NEK7
  remaining activity at 10 µM: 93.2%
TGFBR2
  remaining activity at 10 µM: 94.5%
VRK2
  remaining activity at 10 µM: 96.6%
YSK4/MAP3K19
  remaining activity at 10 µM: 96.8%
IRAK2
  remaining activity at 10 µM: 97.5%

Reference: patent US20250101023A1, “HETEROARYL DERIVATIVE AND USES THEREOF” (IUCF-HYU (INDUSTRY-UNIVERSITY COOPERATION FOUNDATION …, priority 2022, published 2025)
